Experimental data as given in ChEMBL document CHEMBL3232987, “Investigation of Ugi-4CC derived 1H-tetrazol-5-yl-(aryl) methyl piperazinyl-6-fluoro-4-oxo-1,4-dihydroquinoline-3-carboxylic acid: synthesis, biology and 3D-QSAR analysis” (Eur J Med Chem, 2014).
In brackets after ≈: the same amount, converted by molar mass.

Key:
Staphylococcus aureus [1] = experiment: Antibacterial activity against methicillin-resistant Staphylococcus aureus ATCC 700699 after 24 hrs by spectrophotometric analysis; type: functional, organism-based; settings: Staphylococcus aureus, ATCC 700699, 24 h; for IC50: read-out: IC50
Staphylococcus aureus [2] = experiment: Antibacterial activity against Staphylococcus aureus ATCC 29213 by NCCLS two-fold dilution method; type: functional
Staphylococcus aureus [3] = experiment: Antibacterial activity against Staphylococcus aureus ATCC 25923 after 24 hrs by spectrophotometric analysis; type: functional, organism-based; settings: Staphylococcus aureus, ATCC 25923, 24 h; for IC50: read-out: IC50
Staphylococcus aureus [4] = experiment: Antibacterial activity against Staphylococcus aureus ATCC 29213 after 24 hrs by spectrophotometric analysis; type: functional, organism-based; settings: Staphylococcus aureus, ATCC 29213, 24 h; for IC50: read-out: IC50
Staphylococcus aureus [5] = experiment: Antibacterial activity against gentamicin-resistant Staphylococcus aureus ATCC 33592 by NCCLS two-fold dilution method; type: functional
Staphylococcus aureus [6] = experiment: Antibacterial activity against methicillin-resistant Staphylococcus aureus ATCC 700699 by NCCLS two-fold dilution method; type: functional
Staphylococcus aureus [7] = experiment: Antibacterial activity against gentamicin-resistant Staphylococcus aureus ATCC 33592 after 24 hrs by spectrophotometric analysis; type: functional, organism-based; settings: Staphylococcus aureus, ATCC 33592, 24 h; for IC50: read-out: IC50
Staphylococcus aureus [8] = experiment: Antibacterial activity against Staphylococcus aureus ATCC 25923 by NCCLS two-fold dilution method; type: functional; settings: for MIC: Staphylococcus aureus, ATCC 25923
L929 [9] = experiment: Cytotoxicity against mouse L929 cells assessed as cell viability up to MIC 0.39 ug/ml after 24 hrs by MTT assay; type: cell-based; settings: l929, 24 h
Klebsiella pneumoniae [10] = experiment: Antibacterial activity against Klebsiella pneumoniae after 24 hrs by spectrophotometric analysis; type: functional, organism-based; settings: Klebsiella pneumoniae, 24 h; for IC50: read-out: IC50
Escherichia coli [11] = experiment: Antibacterial activity against Escherichia coli by NCCLS two-fold dilution method; type: functional
Klebsiella pneumoniae [12] = experiment: Antibacterial activity against Klebsiella pneumoniae by NCCLS two-fold dilution method; type: functional
Escherichia coli [13] = experiment: Antibacterial activity against Escherichia coli after 24 hrs by spectrophotometric analysis; type: functional, organism-based; settings: Escherichia coli, 24 h; for IC50: read-out: IC50
L929 [14] = experiment: Cytotoxicity against mouse L929 cells assessed as cell morphological changes at 12.5 to 50 ug/ml after 24 hrs by giemsa staining based phase contrast microscopy; settings: l929, 24 h

CCn1cc(C(=O)O)c(=O)c2cc(F)c(N3CCN(C(c4ccccc4)c4nnnn4C4CCCCC4)CC3)cc21 (configuration not stated)
MIC (Staphylococcus aureus [1]): 11.6 µg/mL (≈ 20.7 µM) | IC50 (Staphylococcus aureus [1]): 4.9 µg/mL (≈ 8.76 µM) | MIC (Staphylococcus aureus [2]): 3.12 µg/mL (≈ 5.57 µM) | MIC (Staphylococcus aureus [3]): 0.8 µg/mL (≈ 1.43 µM) | IC50 (Staphylococcus aureus [3]): 0.4 µg/mL (≈ 0.715 µM) | MIC (Staphylococcus aureus [4]): 1.5 µg/mL (≈ 2.68 µM) | IC50 (Staphylococcus aureus [4]): 0.8 µg/mL (≈ 1.43 µM) | MIC (Staphylococcus aureus [5]): 1.56 µg/mL (≈ 2.79 µM) | MIC (Staphylococcus aureus [6]): 12.5 µg/mL (≈ 22.3 µM) | MIC (Staphylococcus aureus [7]): 0.78 µg/mL (≈ 1.39 µM) | IC50 (Staphylococcus aureus [7]): 0.75 µg/mL (≈ 1.34 µM) | -logMIC (Staphylococcus aureus [8]): 5.554 | MIC (Staphylococcus aureus [8]): 1.56 µg/mL (≈ 2.79 µM) | Activity (L929 [9]): Non-toxic

CCn1cc(C(=O)O)c(=O)c2cc(F)c(N3CCN(C(c4ccncc4)c4nnnn4C(C)(C)C)CC3)cc21 (configuration not stated)
MIC (Klebsiella pneumoniae [10]): 26 µg/mL (≈ 48.6 µM) | IC50 (Klebsiella pneumoniae [10]): 24 µg/mL (≈ 44.9 µM) | MIC (Staphylococcus aureus [1]): 50 µg/mL (≈ 93.5 µM) | IC50 (Staphylococcus aureus [1]): 50 µg/mL (≈ 93.5 µM) | MIC (Staphylococcus aureus [2]): 1.56 µg/mL (≈ 2.92 µM) | MIC (Escherichia coli [11]): 25 µg/mL (≈ 46.8 µM) | MIC (Klebsiella pneumoniae [12]): 25 µg/mL (≈ 46.8 µM) | MIC (Staphylococcus aureus [3]): 0.9 µg/mL (≈ 1.68 µM) | IC50 (Staphylococcus aureus [3]): 0.5 µg/mL (≈ 0.935 µM) | MIC (Staphylococcus aureus [4]): 0.9 µg/mL (≈ 1.68 µM) | IC50 (Staphylococcus aureus [4]): 0.6 µg/mL (≈ 1.12 µM) | MIC (Staphylococcus aureus [5]): 1.56 µg/mL (≈ 2.92 µM) | MIC (Staphylococcus aureus [6]): 50 µg/mL (≈ 93.5 µM) | MIC (Staphylococcus aureus [7]): 0.7 µg/mL (≈ 1.31 µM) | IC50 (Staphylococcus aureus [7]): 0.35 µg/mL (≈ 0.655 µM) | MIC (Escherichia coli [13]): 27.7 µg/mL (≈ 51.8 µM) | IC50 (Escherichia coli [13]): 20.5 µg/mL (≈ 38.3 µM) | -logMIC (Staphylococcus aureus [8]): 5.534 | MIC (Staphylococcus aureus [8]): 1.56 µg/mL (≈ 2.92 µM) | Activity (L929 [9]): Non-toxic

CCn1cc(C(=O)O)c(=O)c2cc(F)c(N3CCN(C(c4ccco4)c4nnnn4C4CCCCC4)CC3)cc21 (configuration not stated)
MIC (Klebsiella pneumoniae [10]): 5.2 µg/mL (≈ 9.46 µM) | IC50 (Klebsiella pneumoniae [10]): 2.4 µg/mL (≈ 4.37 µM) | MIC (Staphylococcus aureus [1]): 8.2 µg/mL (≈ 14.9 µM) | IC50 (Staphylococcus aureus [1]): 3.7 µg/mL (≈ 6.73 µM) | MIC (Staphylococcus aureus [2]): 1.56 µg/mL (≈ 2.84 µM) | MIC (Escherichia coli [11]): 12.5 µg/mL (≈ 22.7 µM) | MIC (Klebsiella pneumoniae [12]): 6.25 µg/mL (≈ 11.4 µM) | MIC (Staphylococcus aureus [3]): 0.45 µg/mL (≈ 0.819 µM) | IC50 (Staphylococcus aureus [3]): 0.22 µg/mL (≈ 0.4 µM) | Activity (L929 [14]): Non-toxic | MIC (Staphylococcus aureus [4]): 1.1 µg/mL (≈ 2 µM) | IC50 (Staphylococcus aureus [4]): 0.6 µg/mL (≈ 1.09 µM) | MIC (Staphylococcus aureus [5]): 0.78 µg/mL (≈ 1.42 µM) | MIC (Staphylococcus aureus [6]): 25 µg/mL (≈ 45.5 µM) | MIC (Staphylococcus aureus [7]): 0.88 µg/mL (≈ 1.6 µM) | IC50 (Staphylococcus aureus [7]): 0.4 µg/mL (≈ 0.728 µM) | MIC (Escherichia coli [13]): 11.6 µg/mL (≈ 21.1 µM) | IC50 (Escherichia coli [13]): 4.9 µg/mL (≈ 8.92 µM) | -logMIC (Staphylococcus aureus [8]): 5.847 | MIC (Staphylococcus aureus [8]): 0.78 µg/mL (≈ 1.42 µM) | Activity (L929 [9]): Non-toxic

CCn1cc(C(=O)O)c(=O)c2cc(F)c(N3CCN(C(c4cccc5ccccc45)c4nnnn4C(C)(C)C)CC3)cc21 (configuration not stated)
MIC (Staphylococcus aureus [1]): 4.9 µg/mL (≈ 8.4 µM) | IC50 (Staphylococcus aureus [1]): 3.5 µg/mL (≈ 6 µM) | MIC (Staphylococcus aureus [2]): 3.12 µg/mL (≈ 5.35 µM) | MIC (Staphylococcus aureus [3]): 0.8 µg/mL (≈ 1.37 µM) | IC50 (Staphylococcus aureus [3]): 0.7 µg/mL (≈ 1.2 µM) | MIC (Staphylococcus aureus [4]): 2.4 µg/mL (≈ 4.11 µM) | IC50 (Staphylococcus aureus [4]): 0.2 µg/mL (≈ 0.343 µM) | MIC (Staphylococcus aureus [5]): 0.78 µg/mL (≈ 1.34 µM) | MIC (Staphylococcus aureus [6]): 6.25 µg/mL (≈ 10.7 µM) | MIC (Staphylococcus aureus [7]): 0.7 µg/mL (≈ 1.2 µM) | IC50 (Staphylococcus aureus [7]): 0.2 µg/mL (≈ 0.343 µM) | -logMIC (Staphylococcus aureus [8]): 5.573 | MIC (Staphylococcus aureus [8]): 1.56 µg/mL (≈ 2.67 µM) | Activity (L929 [9]): Non-toxic

O=C(O)c1cn(C2CC2)c2cc(N3CCNCC3)c(F)cc2c1=O [CIPROFLOXACIN]
MIC (Klebsiella pneumoniae [10]): 0.049 µg/mL (≈ 0.148 µM) | IC50 (Klebsiella pneumoniae [10]): 0.02 µg/mL (≈ 0.0604 µM) | MIC (Staphylococcus aureus [1]): 20.2 µg/mL (≈ 61 µM) | IC50 (Staphylococcus aureus [1]): 16.7 µg/mL (≈ 50.4 µM) | MIC (Klebsiella pneumoniae [12]): 0.012 µg/mL (≈ 0.0362 µM) | MIC (Staphylococcus aureus [3]): 0.9 µg/mL (≈ 2.72 µM) | IC50 (Staphylococcus aureus [3]): 0.3 µg/mL (≈ 0.905 µM) | MIC (Staphylococcus aureus [4]): 20.2 µg/mL (≈ 61 µM) | IC50 (Staphylococcus aureus [4]): 16.7 µg/mL (≈ 50.4 µM) | MIC (Staphylococcus aureus [5]): 0.19 µg/mL (≈ 0.573 µM) | MIC (Staphylococcus aureus [7]): 0.4 µg/mL (≈ 1.21 µM) | IC50 (Staphylococcus aureus [7]): 0.2 µg/mL (≈ 0.604 µM) | MIC (Staphylococcus aureus [8]): 0.78 µg/mL (≈ 2.35 µM)
